Laboratory results as given in ChEMBL document CHEMBL1201862, “PubChem BioAssay data set” (2004).
The source made the active and inactive calls.

Columns and labels:
[1] = target: ATP-dependent molecular chaperone HSP82 (Candida albicans (strain WO-1) (Yeast), UniProt C4YTQ8); test: loss of DOC-induced GRE-beta-galactosidase reporter signal, dose response, Hsp90 inhibitor project, S. cerevisiae, luminescence (AID 2400); format: functional, cell-based;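 note: beta-galactosidase luminescence from glucocorticoid response element reporter as proxy for Hsp90 function; inhibitor potency where signal loss means Hsp90 inhibition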
Sequence of ATP-dependent molecular chaperone HSP82 (C4YTQ8 whole entry): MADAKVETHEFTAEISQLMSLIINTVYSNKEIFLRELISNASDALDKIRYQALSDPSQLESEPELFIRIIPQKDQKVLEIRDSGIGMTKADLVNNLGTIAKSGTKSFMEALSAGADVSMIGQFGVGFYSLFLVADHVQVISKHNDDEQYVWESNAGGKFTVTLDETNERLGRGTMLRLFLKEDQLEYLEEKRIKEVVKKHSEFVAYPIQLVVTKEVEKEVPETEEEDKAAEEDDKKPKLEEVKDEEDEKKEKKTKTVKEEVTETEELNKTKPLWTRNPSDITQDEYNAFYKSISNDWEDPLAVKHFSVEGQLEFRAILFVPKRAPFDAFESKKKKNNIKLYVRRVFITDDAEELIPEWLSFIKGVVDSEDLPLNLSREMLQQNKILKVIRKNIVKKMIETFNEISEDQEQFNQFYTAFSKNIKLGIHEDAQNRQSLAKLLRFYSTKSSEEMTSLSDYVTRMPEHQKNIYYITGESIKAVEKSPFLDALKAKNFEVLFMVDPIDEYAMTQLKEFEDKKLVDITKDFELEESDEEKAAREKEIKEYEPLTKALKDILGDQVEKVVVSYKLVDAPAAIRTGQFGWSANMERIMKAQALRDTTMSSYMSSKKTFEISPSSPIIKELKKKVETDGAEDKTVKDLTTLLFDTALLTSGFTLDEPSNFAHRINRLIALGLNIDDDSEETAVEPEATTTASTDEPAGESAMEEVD

cells [2] = format: functional, cell-based
[3] = inhibitors of intracellular T. cruzi replication, confirmation, NIH3T3 host cells, beta-gal luminescence (AID 2044); format: functional, cell-based;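 note: intracellular parasites grown in NIH/3T3 mouse fibroblasts as host cells; luminescent beta-galactosidase reporter signal from transgenic T. cruzi replicating inside host cells; inhibitors lower the luminescence signal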
INS1 = test: beta cell apoptosis inhibitors, cytokine rescue, dose response, luminescence, retest (AID 449756); format: functional, cell-based; conditions: Rattus norvegicus;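 note: cell death triggered by IL-1 beta plus TNF-alpha plus IFN-gamma mixture; protective hits raise ATP signal compared with cytokine alone wells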
cells [4] = format: functional, cell-based; remark: listed apart in the source
[5] = NIH-3T3 fibroblast cytotoxicity, dose response, cytotoxicity control, cell-based, fluorescence, Alamar Blue, secondary assay (AID 2327); format: functional;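 note: NIH-3T3 mouse fibroblasts cultured with fluconazole at 8 µg/mL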
Vero = test: cells; format: functional; conditions: Chlorocebus sabaeus
[6] = C. albicans growth with fluconazole, confirmation, fluorescence, retest (AID 2467); format: functional, cell-based
[7] = cytotoxicity toward NIH3T3 fibroblasts, dose response, counter-screen, cell-based, ATP luminescence, mouse fibroblasts (AID 2010); format: functional;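 note: cells exposed to compound for about 90 hours before reading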
[8] = target: T1, Serine/threonine-protein phosphatase (Candida dubliniensis (strain CD36 / CBS 7987 / NCPF 3949 / NRRLY-17841) (Yeast), UniProt B9W6M3); test: calcineurin pathway inhibitors in yeast reporter, dose response, S. cerevisiae, CDRE-lacZ, luminescence, secondary (AID 2388); format: functional, cell-based;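 note: yeast reporter cells carrying a calcineurin-responsive lacZ construct stimulated with calcium chloride; luminescent beta-galactosidase reporter signal in whole cells rather than isolated phosphatase activity; potency for inhibition where a drop in reporter signal means calcineurin blockade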
T1 sequence (B9W6M3 whole entry): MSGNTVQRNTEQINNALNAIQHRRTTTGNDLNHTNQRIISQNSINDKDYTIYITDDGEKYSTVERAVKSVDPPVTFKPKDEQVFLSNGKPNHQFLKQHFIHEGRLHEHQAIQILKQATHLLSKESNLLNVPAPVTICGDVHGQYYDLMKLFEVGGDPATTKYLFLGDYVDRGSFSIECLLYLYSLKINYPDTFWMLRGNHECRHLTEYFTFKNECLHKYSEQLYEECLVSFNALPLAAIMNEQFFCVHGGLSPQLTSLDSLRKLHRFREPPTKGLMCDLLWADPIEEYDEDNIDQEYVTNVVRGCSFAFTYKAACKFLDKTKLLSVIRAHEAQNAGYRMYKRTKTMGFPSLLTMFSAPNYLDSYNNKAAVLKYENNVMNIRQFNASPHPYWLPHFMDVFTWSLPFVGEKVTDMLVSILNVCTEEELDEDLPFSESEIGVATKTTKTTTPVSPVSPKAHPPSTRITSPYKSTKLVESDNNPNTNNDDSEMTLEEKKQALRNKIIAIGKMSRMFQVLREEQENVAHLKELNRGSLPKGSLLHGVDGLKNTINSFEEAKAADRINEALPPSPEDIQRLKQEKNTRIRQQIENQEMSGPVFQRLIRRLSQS

[9] = NIH-3T3 fibroblast cytotoxicity, dose response, cytotoxicity control for antifungal single agent project, cell-based, Alamar Blue, dry powder (AID 602188); format: functional
Streptococcus = test: Group A Streptococcus viability loss, dose response, counter-screen for streptokinase expression inhibitor project, luminescence, BacTiterGlo (AID 1915); format: functional, organism-based;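 note: potency for reduction of bacterial viability or growth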
[10] = test system: Streptococcus sp. 'group A'; test: growth inhibition of control SK(-) GAS strain, dose response, counter-screen for streptokinase expression inhibitor project, luminescence, kanamycin, BacTiterGlo, confirmation (AID 1900); format: functional, organism-based
Streptokinase A = target: T2, Streptokinase A (Streptococcus pyogenes serotype M1, UniProt P10520); test: S. pyogenes streptokinase expression inhibitors, potency, dose response, plasminogen activation absorbance, OD405 (AID 1914); format: functional, Streptococcus pyogenes M1 GAS;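 note: secreted streptokinase activity via plasminogen activation per viability signal from cell pellet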
T2 sequence (P10520 whole entry): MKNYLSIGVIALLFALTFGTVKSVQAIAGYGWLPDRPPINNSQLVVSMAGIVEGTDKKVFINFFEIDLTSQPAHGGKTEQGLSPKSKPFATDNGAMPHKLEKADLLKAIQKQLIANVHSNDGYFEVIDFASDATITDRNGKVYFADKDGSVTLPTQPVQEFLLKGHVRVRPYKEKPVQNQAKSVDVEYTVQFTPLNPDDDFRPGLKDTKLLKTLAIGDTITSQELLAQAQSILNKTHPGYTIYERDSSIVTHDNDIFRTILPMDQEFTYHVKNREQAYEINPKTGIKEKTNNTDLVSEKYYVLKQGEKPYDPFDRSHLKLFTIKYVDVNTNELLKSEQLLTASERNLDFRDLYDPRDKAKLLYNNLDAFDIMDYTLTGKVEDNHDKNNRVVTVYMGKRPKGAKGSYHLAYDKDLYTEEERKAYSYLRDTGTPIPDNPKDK

[11] = target: Heat shock protein HSP 90-alpha (Homo sapiens, UniProt P07900); format: functional, organism-based
Escherichia coli = test: microbe, parasite or virus in culture
[12] = target: Voltage-gated inwardly rectifying potassium channel KCNH2 (Homo sapiens, UniProt Q12809); conditions: Potency;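 note: confirmatory quantitative high-throughput screen measuring inhibition of hERG channel activity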
Sequence of Voltage-gated inwardly rectifying potassium channel KCNH2 (Q12809 whole entry): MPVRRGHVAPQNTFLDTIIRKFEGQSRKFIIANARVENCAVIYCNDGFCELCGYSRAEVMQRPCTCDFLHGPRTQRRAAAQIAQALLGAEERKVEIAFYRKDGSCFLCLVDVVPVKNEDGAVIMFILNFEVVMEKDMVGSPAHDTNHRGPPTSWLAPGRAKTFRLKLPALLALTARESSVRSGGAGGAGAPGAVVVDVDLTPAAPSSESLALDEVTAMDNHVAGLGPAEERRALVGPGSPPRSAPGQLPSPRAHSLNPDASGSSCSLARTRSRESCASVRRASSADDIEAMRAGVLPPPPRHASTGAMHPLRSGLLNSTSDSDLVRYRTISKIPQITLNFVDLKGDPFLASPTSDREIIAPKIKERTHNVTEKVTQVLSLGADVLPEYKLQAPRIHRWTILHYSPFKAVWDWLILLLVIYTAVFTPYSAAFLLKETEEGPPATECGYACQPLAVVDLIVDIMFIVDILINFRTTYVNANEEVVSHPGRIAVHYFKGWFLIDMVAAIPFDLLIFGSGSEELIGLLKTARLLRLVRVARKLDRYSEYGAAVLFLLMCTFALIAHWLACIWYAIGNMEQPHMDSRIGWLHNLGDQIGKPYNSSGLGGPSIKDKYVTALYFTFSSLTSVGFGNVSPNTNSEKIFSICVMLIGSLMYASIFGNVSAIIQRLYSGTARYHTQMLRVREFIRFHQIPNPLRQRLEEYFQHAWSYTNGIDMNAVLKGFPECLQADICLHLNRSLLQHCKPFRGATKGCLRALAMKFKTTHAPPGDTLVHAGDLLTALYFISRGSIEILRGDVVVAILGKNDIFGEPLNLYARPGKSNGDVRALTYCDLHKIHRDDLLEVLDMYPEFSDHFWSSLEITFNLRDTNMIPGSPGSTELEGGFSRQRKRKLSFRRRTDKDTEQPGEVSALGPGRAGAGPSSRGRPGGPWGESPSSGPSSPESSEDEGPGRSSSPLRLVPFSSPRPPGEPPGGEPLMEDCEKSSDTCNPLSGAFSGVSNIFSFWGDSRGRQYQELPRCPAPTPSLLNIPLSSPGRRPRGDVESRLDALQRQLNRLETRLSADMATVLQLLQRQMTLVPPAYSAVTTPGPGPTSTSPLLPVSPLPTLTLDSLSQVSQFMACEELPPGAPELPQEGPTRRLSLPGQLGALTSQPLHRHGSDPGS

[13] = Luminescence Cell-Based Dose Confirmation HTS to Identify Activators of 5'UTR Stem-Loop Driven Alpha-Synuclein mRNA Translation in H4 Neuroglioblastoma Cells. [Related pubchem assays: 1829 (Project Summary), 1814 (Primary HTS)]; format: functional
Melanocortin receptor 4 = Melanocortin receptor 4 (Homo sapiens, UniProt P32245); format: functional, cell-based;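 note: Cell-based assay with luminescence read-out, confirmatory dose-response testing for agonist activity of biased ligands at MC4R; human U2OS cells with tagged receptor and beta-arrestin; potency of agonists that increase receptor coupling to beta-arrestin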
Sequence of Melanocortin receptor 4 (P32245 whole entry): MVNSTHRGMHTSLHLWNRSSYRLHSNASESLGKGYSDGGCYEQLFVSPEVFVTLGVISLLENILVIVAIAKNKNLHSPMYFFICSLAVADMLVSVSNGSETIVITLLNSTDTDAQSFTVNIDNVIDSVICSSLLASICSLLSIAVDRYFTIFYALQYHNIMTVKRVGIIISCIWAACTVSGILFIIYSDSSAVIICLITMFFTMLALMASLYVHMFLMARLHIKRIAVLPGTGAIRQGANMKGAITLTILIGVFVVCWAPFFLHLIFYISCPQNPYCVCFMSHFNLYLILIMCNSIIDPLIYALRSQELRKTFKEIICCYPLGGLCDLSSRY

[14] = Luminescence Cell-Based Dose Response HTS to Identify Activators of Luciferase Translation or Activity in H4 […] Cells. [Related pubchem assays: 1829 (Project Summary), 1814 (Primary HTS)]; format: functional
H4 = test: Luminescence Cell-Based Dose Response HTS to Identify Activators of 5'UTR Stem-Loop Driven Prion Protein mRNA Translation in H4 Neuroglioblastoma Cells. [Related pubchem assays: 1829 (Project Summary), 1814 (Primary HTS)]; format: functional; conditions: Homo sapiens
[15] = insulin promoter down-regulators in MIN6 cells, imaging, high-content screening, mouse beta cells (AID 1628); format: functional
[16] = HepG2 cell cytotoxicity, dose response, cytotoxicity control for Shn3 inhibitor project, CellTiter-Glo, cherry-picked (AID 624134); format: functional, cell-based
[17] = cytotoxicity in MIN6 insulinoma cells, dose response, cytotoxicity control, cell-based, mouse insulinoma (AID 2122); format: functional;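 note: confirmatory high-throughput counterscreen run to flag cytotoxic compounds; mouse MIN-6 beta cells carrying an insulin promoter eGFP reporter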
[18] = control 3'UTR Renilla luciferase suppression, dose response, counter-screen for Shn3 inhibitor project, cell-based, Clone20-Shn3RL, cherry-picked (AID 624133); format: functional
[19] = Shn3 3'UTR reporter inhibitors, dose response, cell-based, Clone20 osteoblasts, firefly luciferase, cherry-picked (AID 624132); format: functional;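 note: firefly luciferase luminescence from reporter carrying the Shn3 3'UTR in osteoblasts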
[20] = target: T3, Microphthalmia-associated transcription factor (Homo sapiens, UniProt O75030); test: TRPM1 promoter luciferase signal decrease, dose response, MITF inhibitor project, cell-based, SK-MEL-5, cherry-picked, set 3 (AID 493073); format: functional
T3 sequence (O75030 whole entry): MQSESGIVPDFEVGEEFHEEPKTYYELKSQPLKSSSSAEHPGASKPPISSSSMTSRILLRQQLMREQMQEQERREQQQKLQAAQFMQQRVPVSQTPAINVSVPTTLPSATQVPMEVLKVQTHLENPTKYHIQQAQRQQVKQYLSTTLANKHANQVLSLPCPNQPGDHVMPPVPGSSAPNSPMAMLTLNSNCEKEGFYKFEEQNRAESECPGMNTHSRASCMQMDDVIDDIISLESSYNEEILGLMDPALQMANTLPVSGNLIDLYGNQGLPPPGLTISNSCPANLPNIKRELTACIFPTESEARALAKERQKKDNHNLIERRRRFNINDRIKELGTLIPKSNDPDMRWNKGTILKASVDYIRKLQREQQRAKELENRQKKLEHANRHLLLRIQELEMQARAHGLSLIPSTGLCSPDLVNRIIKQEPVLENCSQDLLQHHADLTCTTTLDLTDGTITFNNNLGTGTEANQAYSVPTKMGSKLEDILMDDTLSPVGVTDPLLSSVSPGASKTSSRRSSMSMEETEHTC

Phospholipase A2 = Phospholipase A2 (Homo sapiens, UniProt P04054); format: functional;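 note: confirmatory dose-response counterscreen on phospholipase A2, testing hits that came from an ultra-high-throughput screen for ATG4B inhibitors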
Sequence of Phospholipase A2 (P04054 whole entry): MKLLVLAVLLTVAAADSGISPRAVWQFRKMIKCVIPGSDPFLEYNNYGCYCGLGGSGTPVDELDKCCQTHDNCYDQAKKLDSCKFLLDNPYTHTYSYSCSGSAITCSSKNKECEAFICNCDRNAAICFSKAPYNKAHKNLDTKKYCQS

Cysteine protease ATG4B = target: T4, Cysteine protease ATG4B (Homo sapiens, UniProt Q9Y4P1); format: functional;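 note: Fluorescence-based dose-response confirmation assay measuring inhibition of ATG4B activity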
T4 sequence (Q9Y4P1 whole entry): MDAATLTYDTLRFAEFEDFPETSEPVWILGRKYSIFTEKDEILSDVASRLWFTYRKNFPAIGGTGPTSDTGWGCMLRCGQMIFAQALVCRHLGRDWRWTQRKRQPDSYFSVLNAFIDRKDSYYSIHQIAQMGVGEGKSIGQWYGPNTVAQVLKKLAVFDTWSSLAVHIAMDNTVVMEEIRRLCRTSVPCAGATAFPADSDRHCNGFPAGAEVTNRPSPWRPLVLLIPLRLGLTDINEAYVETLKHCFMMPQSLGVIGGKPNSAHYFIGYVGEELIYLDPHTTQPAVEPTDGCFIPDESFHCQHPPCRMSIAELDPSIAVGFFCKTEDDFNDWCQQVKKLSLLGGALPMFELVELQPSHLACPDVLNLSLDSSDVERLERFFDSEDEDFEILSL

In the case of `Cc1cc(C)n(-c2nc3ccccc3c(=O)n2OCC#N)n1`, the EC50 [1] is reported as > 150 µM (inactive), the EC50 (cells [2]) is reported as 28.9 µM (active) and the EC50 [3] is reported as 1.14 µM (active). The AC50 (INS1) was 4.13 µM (active), the EC50 (cells [4]) was 137 µM (active) and the EC50 [5] was 150 µM (active). For the same compound, the CC50 (Vero) was 8.68 µM (active), the EC50 [6] was 0.727 µM (active) and the EC50 [7] was 4.32 µM (active). For the same compound, the EC50 [8] was > 180 µM (inactive) and the AC50 [9] was 0.881 µM (active).
In the case of `O=C(NNc1nc2ccc(Cl)cc2s1)c1cc(-c2cccs2)nc2ccccc12`, the EC50 [1] is reported as 12.8 µM (active), the EC50 (Streptococcus) is reported as 5.79 µM (active) and the EC50 [5] is reported as 19.7 µM (active). The EC50 [10] was 0.472 µM (active), the EC50 (Streptokinase A) was > 150 µM (not active) and the EC50 [6] was 0.433 µM (active). For the same compound, the AC50 [11] was 2.18 µM (active) and the EC50 [8] was > 180 µM (inactive).
For `CS(=O)(=O)N1CCN(C(=O)c2cccnc2)CC1`, the AC50 (Escherichia coli) was > 150 µM (inactive).
In the case of `CC(O)[C@@H](O)[C@H]1CNc2nc(N)[nH]c(=O)c2N1` (some centres undefined), the AC50 [12] is reported as 3.55 µM (inconclusive).
For `Cc1nnnn1/C(=C\c1ccccc1)C(=O)OCC(=O)Nc1ccc(Cl)cc1F`, the EC50 [13] was > 120 µM (not active), the EC50 (Melanocortin receptor 4) was > 89.2 µM (inactive) and the EC50 [14] was > 60 µM (not active). For the same compound, the EC50 (H4) was 5.56 µM (active).
With `Cc1ccc(NC(=O)CN(C)CC(=O)Nc2cccc(F)c2)cc1[N+](=O)[O-]` the IC50 [15] was 0.765 µM (active), the AC50 [16] was > 70 µM (inactive) and the IC50 [17] was 0.487 µM (active). For the same compound, the AC50 [18] was 10.1 µM (active) and the AC50 [19] was 0.57 µM (active).
For `COc1ccc(C(=O)C(CN2CCOCC2)c2ccccc2)cc1` (centres undefined), the AC50 [20] was 7.29 µM (active), the IC50 [15] was 4.99 µM (active) and the AC50 [16] was > 70 µM (inactive). For the same compound, the IC50 [17] was 4.42 µM (active), the AC50 [18] was 11.2 µM (active) and the AC50 [19] was 5.59 µM (active).
With `CC1CC(C)CN(C(=O)c2ccc(C(=O)c3ccccc3)cc2)C1` (centres undefined) the IC50 (Phospholipase A2) was 8.32 µM (active) and the IC50 (Cysteine protease ATG4B) was 10.8 µM (active).
For `Cc1sc2nc(C3CCCCC3)nc(SCC(=O)N3CC(=O)Nc4ccccc43)c2c1C`, the IC50 (Phospholipase A2) was 0.182 µM (active) and the IC50 (Cysteine protease ATG4B) was 0.316 µM (active).
In the case of `CC(C)Cn1cnc2c(c(-c3ccccc3)c(-c3ccccc3)n2Cc2ccco2)c1=N`, the IC50 [15] is reported as 1.69 µM (active), the EC50 [3] is reported as 0.879 µM (active) and the IC50 [17] is reported as 2.88 µM (active). The EC50 [7] was 8.39 µM (active).
